Reference: patent US8415312B2, “Compound which is a nystatin derivative” (Biosergen AS, priority 2007, dated 2013)
Converted amounts (≈) assume the structure as drawn. “And” between values parts separate entries of the source, which are not always exact repeats. Equal entries are not always repeated.

How the values were obtained:
[1] = test system: yeasts and filamentous fungi (moulds); experiment: Antifungal susceptibility study (1), overall comparison across the test organisms; format: cell-based; conditions: for anti-fungal activity compared with Amphotericin B and S44HP: Table 5 MICs; for antifungal activity, rank within the series: Tables 7 and 8
Protocol: The organisms used for susceptibility testing were: Candida albicans ATCC 14053, Cryptococcus humicolus ATCC 9949, Aspergillus niger ATCC 16404 and Fusarium oxysporum VKM F-140 (=CMI, IMI 90473). Organisms were stored on potato dextrose agar […] 50% glycerol solution at -70° C. For short-term storage, stock cultures were stored on agar […] 4° C. The cultures of yeasts were sub-cultured onto Sabouraud dextrose (SAB) agar and incubated for 24 hours at 35° C. (Candida albicans) or for 48 hours at 25° C. (Cryptococcus humicolus) to obtain a freshly grown pure culture. The cultures of moulds were sub-cultured onto potato dextrose agar and incubated for 7 days at 35° C. […] (Fusarium oxysporum) to ensure maximum sporulation. Sterile 96-well flat-bottomed microtitration plates were used for testing. 100 μl of diluted inocula were dispensed into each microdilution well containing 100 μl of the double dilutions of compounds. Drug-free and yeast/mould-free controls were included. Microdilution trays were incubated at 35° C. (Candida albicans and moulds) or 25° C. (Cryptococcus humicolus) without agitation and observed for the presence or absence of visible growth. […] Minimal inhibitory concentrations (MICs) were read at 48 hours.

[2] = test system: Candida albicans (strain 14053 ATCC); experiment: In vivo antifungal activity, kidney burden in infected mice; conditions: day 5, individual mice
Protocol: Male mice of hybrids of first generation (C57B1/6xDBA/2)F1 B6D2F1, weight 20-22 g., received from the Central farm. “Kryukovo” of Russian Academies of Medical Science (RAMS) were used. Animals were maintained in a vivarium in plastic cages (with hardwood bedding in environmentally controlled conditions: 24±1° C., 12/12 hours light/dark cycle) on a standard diet of bricketed forages with easy access to drinking water (ad libitum). After a 2-week quarantine period, healthy animals were used in experimental work.
The solutions were prepared as follows: dry antibiotic substances (5 mg) were mixed with dry sodium deoxycholate (4.1 mg) in a sterile glass vial. 10 mL of phosphate buffer (NaH2PO4—1.59 g; Na2HPO4—0.96 g; H2O—to 100 mL) was added to the mix and the suspension was immediately subjected to vigorous shaking for 10 minutes until homogeneous suspensions were formed.
Animals were infected intravenously with Candida albicans culture at a dose of 1.0 million CFU/mouse (volume 0.1 mL). 30 minutes after infection, the antifungal agents were introduced intravenously into the mice at various doses in a volume of 0.2 mL (at a rate of 0.2 mL/30 second). Each dose was administered daily for four days including the day of infection (0, 1, 2 and 3 days).
As a control, there was a group of untreated mice (infected in the same way with Candida albicans). Also there was a “placebo” group of non-infected animals which were intravenously administered (in the same volume as antifungal agent preparations) 0.2 mL of solvent (phosphatic buffer +5% glucose (1:1)).
On the 5th day of experiment, mice were weighed and euthanized (killed) by a cervical dislocation. Then, in sterile conditions, the Candida albicans burden of each mouse was determined by counting of viable homogenates from the kidneys. The kidneys were removed aseptically and weighed, then pounded in porcelain mortars with sterile corundum. Dilutions of the resulting suspensions were prepared and sowed on Petri dishes with agar Saburo, incubated for 24 hours at a temperature of 35° C. Developed colonies of Candida albicans were then counted and their quantity calculated on the basis of 1 g of kidney tissue.

[3] = test system: Candida albicans ATCC 14053; experiment: Antifungal susceptibility study (1), broth microdilution MIC; format: cell-based; conditions: lowest concentration preventing any visible growth, read at 48 hours, 35° C., RPMI 1640 pH 7.0
Summary of the method: (§1)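 Broth microdilution in test medium at pH 7.0 with two-fold compound dilutions (DMSO stocks diluted 50-fold into medium), inoculated with freshly grown yeast cultures. Plates were incubated without agitation at 35° C. for C. albicans or 25° C. for C. humicolus. MIC was taken as the concentration with no visible growth, read at 48 hours.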

[4] = test system: Cryptococcus humicolus ATCC 9949; experiment: as above; format: cell-based; conditions: lowest concentration preventing any visible growth, read at 48 hours, 25° C., RPMI 1640 pH 7.0
Summary of the method: as §1

[5] = test system: mice (C57B1/6xDBA/2)F1 B6D2F1; conditions: single injection into tail vein, probit analysis
Summary of the method: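 Male B6D2F1 mice, 20-22 g, given one tail-vein injection of antibiotic suspended with sodium deoxycholate in phosphate buffer, within 1-1.5 h of preparation. Doses spanned 0% to 100% lethality with at least 3 intermediate doses, in randomized groups of 6 mice.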

[6] = 0.08 mg/kg × 4/24 i.v., colonies per 1 g of kidney tissue
[7] = 0.8 mg/kg × 4/24 i.v., colonies per 1 g of kidney tissue
[8] = 2.5 mg/kg × 4/24 i.v., colonies per 1 g of kidney tissue
[9] = 5 mg/kg × 4/24 i.v., Candida albicans colonies per 1 g of kidney tissue

SMILES | anti-fungal activity compared with Amphotericin B and S44HP [1] | Number of Colonies [2, 6] | Number of Colonies [2, 7] | Number of Colonies [2, 8] | Number of Colonies [2, 9] | MIC Candida albicans ATCC 14053 [3] | MIC Cryptococcus humicolus ATCC 9949 [4] | LD50 [5] | MTD [5] | Number of Colonies ([2]; 0.08 mg/kg × 4/24 i.v., colonies per 1 g of kidney tissue, listed as Amp B) | Number of Colonies ([2]; 0.8 mg/kg × 4/24 i.v., colonies per 1 g of kidney tissue, listed as Amp B) | Number of Colonies ([2]; 2.5 mg/kg × 4/24 i.v., colonies per 1 g of kidney tissue, listed as Amp B) | antifungal activity, rank within the series [1]
CC1C=CC=CC=CC=CC=CC=CC=CC(OC2OC(C)C(O)C(N)C2O)CC2OC(O)(CC(O)C(O)CCC(O)CC(O)CC(O)CC(=O)OC(C)C(C)C1O)CC(O)C2C (centres unmarked) [Compound 1] | comparable anti-fungal activity to Amphotericin B and S44HP | 2.4 × 10^4 (2×) and 2.8 × 10^4 | 2.5 × 10^3 and 1.2 × 10^3 and 5.0 × 10^3 | 2.0 × 10^1 (2×) and 1.0 × 10^1 | 1.0 × 10^1 (2×) and 0 | 1 µg/mL (≈ 1.12 µM) | 1 µg/mL (≈ 1.12 µM) | 15.4 mg/kg | 7.8 mg/kg |  |  |  | 
C[C@@H]1[C@H](O)[C@@H](C)/C=C/C=C/C=C/C=C/C=C/C=C/C=C/[C@H](O[C@@H]2O[C@H](C)[C@@H](O)[C@H](N)[C@@H]2O)C[C@@H]2O[C@](O)(C[C@@H](O)C[C@@H](O)[C@H](O)CC[C@@H](O)C[C@@H](O)CC(=O)O[C@H]1C)C[C@H](O)[C@H]2C(=O)O [Amphotericin B, reference compound] |  |  |  |  |  | 1 µg/mL (≈ 1.08 µM) | 1 µg/mL (≈ 1.08 µM) | 2.8 mg/kg | 2.01 mg/kg | 1.8 × 10^4 and 2.6 × 10^4 and 3.4 × 10^4 | 2 × 10^3 and 6 × 10^3 and 4 × 10^3 | 1.0 × 10^3 and 2.2 × 10^2 and 2.8 × 10^2 | 
CC1C=CC=CC=CC=CC=CC=CC=CC(OC2OC(C)C(O)C(N)C2O)CC2OC(O)(CC(O)C(O)CCC(O)CC(O)CC(O)CC(=O)OC(C)C(C)C1O)CC(O)C2C.NC(CCC(=O)O)C(=O)O [Compound 29, Compound 1 L-glutamate] |  |  |  |  |  | 1 µg/mL | 1 µg/mL | 17.8 mg/kg | 11.0 mg/kg |  |  |  | most active salt of Compound 1
CC1O[C@@H](O[C@H]2/C=C/C=C/C=C/C=C/C=C/C=C/C=C/[C@H](C)[C@@H](O)[C@@H](C)[C@H](C)OC(=O)C[C@H](O)C[C@H](O)C[C@H](O)CC[C@@H](O)[C@H](O)C[C@]3(O)C[C@H](O)[C@@H](C)[C@H](C2)O3)[C@H](O)C(NC(=O)[C@@H](N)CCCCN)[C@@H]1O (stereo partly drawn) [Compound 51, N-L-Lysyl-Compound 1] |  |  |  |  |  | 1 µg/mL (≈ 0.978 µM) | 1 µg/mL (≈ 0.978 µM) | 5.3 mg/kg | 4.48 mg/kg |  |  |  | most active derivative in this series with antifungal activity slightly higher than the parent antibiotic
CC1C=CC=CC=CC=CC=CC=CC=CC(OC2OC(C)C(O)C(N)C2O)CC2OC(O)(CC(O)C(O)CCC(O)CC(O)CC(O)CC(=O)OC(C)C(C)C1O)CC(O)C2C(=O)NCCCN(C)C (centres unmarked) [Compound 11, S44HP DMAP Amide] | comparable anti-fungal activity to Amphotericin B and S44HP | 3.0 × 10^4 and 2.7 × 10^4 and 1.5 × 10^4 | 1.2 × 10^3 and 3.0 × 10^3 and 2.5 × 10^3 | <10^1 and 1.0 × 10^1 (2×) | 0 (2×) and <10^1 | 1 µg/mL (≈ 0.992 µM) | 1 µg/mL (≈ 0.992 µM) | 16.4 mg/kg | 11.9 mg/kg |  |  |  | 
